Assay results from patent US7960415B2, “Caspase inhibitors and uses thereof” (Vertex Pharmaceutical Incoporated, priority 2003, dated 2011).

Tests used:
[1] = test system: IL-1β secretion from human whole blood; test: Inhibition of IL-1β secretion from whole blood; assay type: cell-based; details: human whole blood diluted 1:2, LPS 5 ng/ml, 18 hours, ELISA
Protocol: Human blood is freshly drawn from healthy donors and diluted 1:2 in PBS. To 500 μl of diluted blood […] of prediluted test compound in RPMI medium and […] LPS (5 ng/ml final concentration on the plate) are added (LPS, Serotype 0111:B4, Sigma L3012). After stimulation for 18 hours supernatants are collected and assayed for IL-1β levels using the appropriate ELISA kit (R&D systems).

[2] = test system: rat cortical neurons; test: Hypoxia-induced apoptosis of rat cortical neurons; assay type: cell-based, Wistar rat; details: Cortical neurone, 95% N2/5% CO2, Cell Death Detection ELISA (DNA fragmentation)
Protocol: Cortical neurons are dissociated from Wistar rat embryos (E17) by a modification of the procedure of Rogers et al. 1997, Brain Res. Bulletin, 44:131. Briefly, cerebral cortices are isolated aseptically from 15-20 Wistar rat embryos. A cell suspension is prepared by mincing the cerebral cortices and digesting them with papain. Cells are washed with ovomucoid enzyme inhibitor and DNaseI and plated onto Poly-D lysine coated plates in high glucose DMEM containing 10% heat-inactivated fetal calf serum, L-glutamine, penicillin and streptomycin. The yield of neurons is […] per embryo and they are 80-90% viable as assessed by Trypan blue exclusion.
The neurons are cultured in complete medium at 37° C. in a normal atmosphere for 48 hours prior to the hypoxia experiments. For hypoxia, the normal cell medium is replaced by oxygen-depleted serum-free medium. Cells are incubated in an atmosphere of 95% N2/5% CO2 for various lengths of time. Compounds are dissolved in DMSO at 100 mM then diluted in medium and added to the culture from time=0. The level of apoptosis is measured using a Cell Death Detection ELISA kit (Roche) which detects DNA fragmentation. Plates are read at 405 nm. Controls included cells cultured in aerobic conditions in serum-containing medium (+serum) and cells cultured in aerobic conditions in serum-deprived medium (−serum).

[3] = test system: Jurkat E6.1 cells; test: Anti-Fas induced apoptosis assay; assay type: cell-based; details: Homo sapiens, anti-Fas antibody CH-11 10 ng/ml, 16-18 hrs, DNA fragmentation
Text: Cellular apoptosis may be induced by the binding of Fas ligand (FasL) to its receptor, CD95 (Fas). CD95 is one of a family of related receptors, known as death receptors, which can trigger apoptosis in cells via activation of the caspase enzyme cascade. The process is initiated by the binding of the adapter molecule FADD/MORT-1 to the cytoplasmic domain of the CD-95 receptor-ligand complex. Caspase-8 then binds FADD and becomes activated, initiating a cascade of events that involve the activation of downstream caspases and subsequent cellular apoptosis. Apoptosis can also be induced in cells expressing CD95 e.g., the Jurkat E6.1 T cell lymphoma cell line, using an antibody, rather than FasL, to crosslink the cell surface CD95. Anti-Fas-induced apoptosis is also triggered via the activation of caspase-8. This provides the basis of a cell based assay to screen compounds for inhibition of the caspase-8-mediated apoptotic pathway.
Jurkat E6.1 cells are cultured in complete medium consisting of RPMI-1640 (Sigma No)+10% foetal calf serum (Gibco BRL No. 10099-141)+2 mM L-glutamine (Sigma No. G-7513). The cells are harvested in log phase of growth. 100 ml of cells at 5-8×10^5 cells/ml are transferred to sterile 50 ml Falcon centrifuge tubes and centrifuged for 5 minutes at 100×g at room temperature. The supernatant is removed and the combined cell pellets resuspended in 25 ml of complete medium. The cells are counted and the density adjusted to 2×10^6 cells/ml with complete medium.
The test compound is dissolved in dimethyl sulfoxide (DMSO)(Sigma No. D-2650) to give a 100 mM stock solution. This is diluted to 400 μM in complete medium, then serially diluted in a 96-well plate prior to addition to the cell assay plate.
100 μl of the cell suspension ([…]) is added to each well of a sterile 96-well round-bottomed cluster plate (Costar No. 3790). 50 μl of compound solution at the appropriate dilution and 50 μl of anti-Fas antibody, clone CH-11 (Upstate, Cat No. 1 544 675) at a final concentration of 10 ng/ml, are added to the wells. Control wells are set up minus antibody and minus compound but with a serial dilution of DMSO as vehicle control. The plates are incubated for 16-18 hrs at 37° C. in 5% CO2 and 95% humidity.
Apoptosis of the cells is measured by the quantitation of DNA fragmentation using a ‘Cell Death Detection Assay’ from Roche diagnostics, No. 1544 675. After incubation for 16-18 hrs the assay plates are centrifuged at 100×g at room temperature for 5 minutes. 150 μl of the supernatant are removed and replaced by 150 μl of fresh complete medium. The cells are then harvested and 200 μl of the lysis buffer supplied in the assay kit are added to each well. The cells are triturated to ensure complete lysis and incubated for 30 minutes at 4° C. The plates are then centrifuged at 1900×g for 10 minutes and the supernatants diluted 1:20 in the incubation buffer provided. 100 μl of this solution is then assayed according to the manufacturer's instructions supplied with the kit. OD405 nm is measured 20 minutes after addition of the final substrate in a SPECTRAmax Plus plate reader (Molecular Devices). OD405 nm is plotted versus compound concentration and the IC50 values for the compounds are calculated using the curve-fitting program SOFTmax Pro (Molecular Devices) using the four parameter fit option.

SMILES	IC50 [1] [nM]	IC50 [2] [nM]	IC50 [3] [nM]
CC[C@@H](C(=O)N[C@@H](CC(=O)O)C(=O)COc1c(F)c(F)cc(F)c1F)n1cccc(NC(=O)c2ccsn2)c1=O [Compound 10, (S,S)-3-(2-{3-[(Isothiazole-3-carbonyl)-amino]-2-oxo-2H-pyridin-1-yl}-butyrylamino)-4-oxo-5-(2,3,5,6-tetrafluorophenoxy)-pentanoic acid]	< 500	< 1000	–
CC[C@@H](C(=O)NC(CC(=O)O)C(=O)CF)n1cccc(NC(=O)c2ccccn2)c1=O (stereo partly drawn) [Compound 32, (S)-5-Fluoro-4-oxo-3-(2-{2-oxo-3-[(pyridine-2-carbonyl)-amino]-2H-pyridin-1-yl}-butyrylamino)-pentanoic acid]	–	–	< 500
CC[C@@H](C(=O)N[C@@H](CC(=O)O)C(=O)COc1c(F)c(F)cc(F)c1F)n1cccc(NS(=O)(=O)c2ccccc2)c1=O [Compound 21, (S,S)-3-[2-(3-Benzenesulfonylamino-2-oxo-2H-pyridin-1-yl)-butyrylamino]-4-oxo-5-(2,3,5,6-tetrafluoro-phenoxy)-pentanoic acid]	500 to 5000	1000 to 10000	–
CCNC(=O)Nc1cccn([C@@H](CC)C(=O)N[C@@H](CC(=O)O)C(=O)COc2c(F)c(F)cc(F)c2F)c1=O [Compound 14, (S,S)-3-{2-[3-(3-Ethyl-ureido)-2-oxo-2H-pyridin-1-yl]-butyrylamino}-4-oxo-5-(2,3,5,6-tetrafluoro-phenoxy)-pentanoic acid]	< 500	1000 to 10000	–
CC[C@@H](C(=O)N[C@@H](CC(=O)O)C(=O)COc1c(F)c(F)cc(F)c1F)n1cccc(NC(=O)N2CCCC2)c1=O [Compound 16, (S,S)-4-Oxo-3-(2-{2-oxo-3-[(pyrrolidine-1-carbonyl)-amino]-2H-pyridin-1-yl}-butyrylamino)-5-(2,3,5,6-tetrafluoro-phenoxy)-pentanoic acid]	500 to 5000	1000 to 10000	–
CC[C@@H](C(=O)N[C@@H](CC(=O)O)C(=O)COc1c(F)c(F)cc(F)c1F)n1cccc(Nc2nccs2)c1=O [Compound 38, (S,S)-4-Oxo-3-{2-[2-oxo-3-(thiazol-2-ylamino)-2H-pyridin-1-yl]-butyrylamino}-5-(2,3,5,6-tetrafluoro-phenoxy)-pentanoic acid]	500 to 5000	< 1000	–
CCS(=O)(=O)Nc1cccn([C@H](C(=O)N[C@@H](CC(=O)O)C(=O)COc2c(F)c(F)cc(F)c2F)C(C)C)c1=O [Compound 24, (S,S)-3-[2-(3-Ethanesulfonylamino-2-oxo-2H-pyridin-1-yl)-3-methyl-butyrylamino]-4-oxo-5-(2,3,5,6-tetrafluoro-phenoxy)-pentanoic acid]	–	1000 to 10000	–
CC[C@@H](C(=O)NC(CC(=O)O)C(=O)CF)n1cccc(NC(=O)Cc2ccccc2)c1=O (stereo partly drawn) [Compound 33, (S)-5-Fluoro-4-oxo-3-[2-(2-oxo-3-phenylacetylamino-2H-pyridin-1-yl)-butyrylamino]-pentanoic acid]	–	–	< 500
CC[C@@H](C(=O)N[C@@H](CC(=O)O)C(=O)COc1c(F)c(F)cc(F)c1F)n1cccc(NC(=O)c2ccoc2)c1=O [Compound 8, (S,S)-3-(2-{3-[(Furan-3-carbonyl)-amino]-2-oxo-2H-pyridin-1-yl}-butyrylamino)-4-oxo-5-(2,3,5,6-tetrafluoro-phenoxy)-pentanoic acid]	500 to 5000	1000 to 10000	–
CC(C)[C@@H](C(=O)N[C@@H](CC(=O)O)C(=O)COc1c(F)c(F)cc(F)c1F)n1cccc(NC(=O)Cc2ccccc2)c1=O [Compound 23, (S,S)-3-[3-Methyl-2-(2-oxo-3-phenylacetylamino-2H-pyridin-1-yl)-butyrylamino]-4-oxo-5-(2,3,5,6-tetrafluoro-phenoxy)-pentanoic acid]	500 to 5000	–	–
CC[C@@H](C(=O)N[C@@H](CC(=O)O)C(=O)COc1c(F)c(F)cc(F)c1F)n1cccc(NC(=O)Cc2ccccc2)c1=O [Compound 12, (S,S)-4-Oxo-3-[2-(2-oxo-3-phenylacetylamino-2H-pyridin-1-yl)-butyrylamino]-5-(2,3,5,6-tetrafluoro-phenoxy)-pentanoic acid]	500 to 5000	< 1000	–
CCCNc1cccn([C@@H](CC)C(=O)N[C@@H](CC(=O)O)C(=O)COc2c(F)c(F)cc(F)c2F)c1=O [Compound 39, (S,S)-4-Oxo-3-[2-(2-oxo-3-propylamino-2H-pyridin-1-yl)-butyrylamino]-5-(2,3,5,6-tetrafluoro-phenoxy)-pentanoic acid]	500 to 5000	< 1000	–
CCC(=O)Nc1cccn([C@@H](C)C(=O)NC(CC(=O)O)C(=O)CF)c1=O (stereo partly drawn) [Compound 25, (S)-5-Fluoro-4-oxo-3-[2-(2-oxo-3-propionylamino-2H-pyridin-1-yl)-propionylamino]-pentanoic acid]	–	–	< 500
CC[C@@H](C(=O)N[C@@H](CC(=O)O)C(=O)COc1c(F)c(F)cc(F)c1F)n1cccc(NC(=O)COC)c1=O [Compound 6, (S,S)-3-{2-[3-(2-Methoxy-acetylamino)-2-oxo-2H-pyridin-1-yl]-butyrylamino}-4-oxo-5-(2,3,5,6-tetrafluoro-phenoxy)-pentanoic acid]	500 to 5000	1000 to 10000	–
CC[C@@H](C(=O)N[C@@H](CC(=O)O)C(=O)COc1c(F)c(F)cc(F)c1F)n1cccc(NC(=O)N(CC)CC)c1=O [Compound 15, (S,S)-3-{2-[3-(3,3-Diethyl-ureido)-2-oxo-2H-pyridin-1-yl]-butyrylamino}-4-oxo-5-(2,3,5,6-tetrafluoro-phenoxy)-pentanoic acid]	500 to 5000	< 1000	–
CC[C@@H](C(=O)N[C@@H](CC(=O)O)C(=O)COc1c(F)c(F)cc(F)c1F)n1cccc(NC(=O)c2cccnc2)c1=O [Compound 9, (S,S)-4-Oxo-3-(2-{2-oxo-3-[(pyridine-3-carbonyl)-amino]-2H-pyridin-1-yl}-butyrylamino)-5-(2,3,5,6-tetrafluoro-phenoxy)-pentanoic acid]	500 to 5000	1000 to 10000	–
CC[C@@H](C(=O)N[C@@H](CC(=O)O)C(=O)COc1c(F)c(F)cc(F)c1F)n1cccc(NS(=O)(=O)C(C)C)c1=O [Compound 20, (S,S)-4-Oxo-3-{2-[2-oxo-3-(propane-2-sulfonylamino)-2H-pyridin-1-yl]-butyrylamino}-5-(2,3,5,6-tetrafluoro-phenoxy)-pentanoic acid]	500 to 5000	< 1000	–
CCCC(=O)Nc1cccn([C@@H](CC)C(=O)N[C@@H](CC(=O)O)C(=O)COc2c(F)c(F)cc(F)c2F)c1=O [Compound 3, (S,S)-3-[2-(3-Butyrylamino-2-oxo-2H-pyridin-1-yl)-butyrylamino]-4-oxo-5-(2,3,5,6-tetrafluoro-phenoxy)-pentanoic acid]	< 500	1000 to 10000	–
